Laboratory results as given in patent publication US9089565B2, “Compositions and methods for causing neurite outgrowth” (MEDICAL RESEARCH COUNCIL, priority 2009, dated 2015).

Test system: DRG neurons from postnatal day 5 rats
Experiment: Neurite outgrowth assay, DRG neurons with myelin-associated inhibitors
Assay type: cell-based, rat
Details: 24 hours
Experimental: FIG. 5. CK2 rescues postnatal rat neurones from inhibition of neurite outgrowth by the myelin-associated inhibitors, Nogo, MAG and OMgp. (A) DRG neurones from postnatal day 5 rats were cultured with or without the Nogo-66 fragment in the presence of the indicated reagents. After 24 hours from addition of the indicated reagents, cells were fixed and ã-tubulin III was detected by immunofluorescence. (B) The number of cells extending neurites of more than 20 μm and total ã-tubulin III positive cell number were counted from images taken in (A). The population of cells extending neurite-like structures of more than 20 μm was indicated as a percentage of total cell number. An average of three experiments is shown. Error bars indicate S. E. between experiments. Data were analysed with student's t test. […] (E) The number of cells extending neurites of more than 20 μm and total ã-tubulin III positive cell number were counted from images taken in (C and D). […] Cells were fixed and ã-tubulin III was detected by immunofluorescence. […] Over-expressed NgR1-Myc was detected by immunofluorescence. (H) The number of Myc-positive cells extending neurites of more than 20 μm and total Myc-positive cell number were counted from images taken in (G). […]

Molecule: Nc1ncnc2c1ncn2[C@@H]1O[C@H](COP(=O)(O)OP(=O)(O)OP(=O)(O)O)[C@@H](O)[C@H]1O [ATP]
- neurite outgrowth in the presence of the Nogo-66 fragment: did not suppress

B1: BDNF: brain-derived neurotrophic factor, member of the neurotrophin nerve growth factor family, purchased from Merck (protein, UniProt P23560 19-247, looked up)
Neurotrophic factor BDNF …: APMKEANIRGQGGLAYPGVRTHGTLESVNGPKAGSRGLTSLADTFEHVIEELLDEDQKVRPNEENNKDADLYTSRVMLSSQVPLEPPLLFLLEEYKNYLDAANMSMRVRRHSDPARRGELSVCDSISEWVTAADKKTAVDMSGGTVTVLEKVPVSKGQLKQYFYETKCNPMGYTKEGCRGIDKRHWNSQCRTTQSYVRALTMDSKKRIGWRFIRIDTSCVCTLTIKRGR
- neurite outgrowth in the presence of the Nogo-66 fragment: fails to block
